Results on 37 compounds are retold here after patent US20130029970A1 (priority 2009, published 2013).

The test addresses T1, recombinant human cannabinoid receptor CB1 (Homo sapiens, UniProt P21554).
T1 construct: (cDNA clone) CNR01L000
The experiment in a line: Cannabinoid receptor radioligand binding assay, [3H]-CP 55,940 displacement, hCB1. The gist of the method: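 Displacement of 0.5 nM [3H]-CP 55,940 (1 μM unlabeled CP 55,940 for nonspecific) measured by filtration and scintillation counting. Binding ran 90 min at room temperature in pH 7.5 Tris buffer with 0.1% fatty-acid-free BSA, using recombinant hCB1 HEK-293 membranes at 2-10 μg protein.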

SMILES strings stand for the structures.

T1 sequence (P21554 whole entry): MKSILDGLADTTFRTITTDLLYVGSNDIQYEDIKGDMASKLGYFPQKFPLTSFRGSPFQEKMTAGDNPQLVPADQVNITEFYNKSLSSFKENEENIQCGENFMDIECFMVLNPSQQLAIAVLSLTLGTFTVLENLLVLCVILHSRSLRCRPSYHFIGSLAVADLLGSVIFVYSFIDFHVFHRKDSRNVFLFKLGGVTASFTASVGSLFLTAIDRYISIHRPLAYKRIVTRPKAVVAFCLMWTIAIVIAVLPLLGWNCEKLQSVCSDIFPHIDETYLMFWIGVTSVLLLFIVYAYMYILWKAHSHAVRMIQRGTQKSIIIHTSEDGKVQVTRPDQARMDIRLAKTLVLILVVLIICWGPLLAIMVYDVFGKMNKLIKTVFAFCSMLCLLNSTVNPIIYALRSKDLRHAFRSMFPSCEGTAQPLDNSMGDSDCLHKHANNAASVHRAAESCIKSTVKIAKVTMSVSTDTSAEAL

A word on the IC50: it is the concentration that inhibits the measured activity by half. With `COc1ccc(C(=O)c2cc3cc(C)n(CCN4CCOCC4)c3s2)c(C)c1` [Compound 88, (4-Methoxy-2-methylphenyl)(5-methyl-6-(2-morpholinoethyl)-6H-thieno[2,3-b]pyrrol-2-yl)methanone], the IC50 lay in the range of 0.1 to 1 µM.
On to `CCOc1ccc(C(=O)c2cc3cc(C)n(CCN4CCOCC4)c3s2)c(F)c1` [Compound 89, (4-Ethoxy-2-fluorophenyl)(5-methyl-6-(2-morpholinoethyl)-6H-thieno[2,3-b]pyrrol-2-yl)methanone], for which the 50% inhibitory concentration (IC50) was in the range of 1 to 10 µM.
In the case of `COc1ccc(C(=O)c2cc3cc(C)n(CCN4CCCCC4)c3s2)c(Cl)c1` [Compound 90, (2-Chloro-4-methoxyphenyl)(5-methyl-6-(2-(piperidin-1-yl)ethyl)-6H-thieno[2,3-b]pyrrol-2-yl)methanone], the IC50 lay within 0.1 to 1 µM.
As for `COc1ccc(C(=O)c2cc3cc(C)n(CCN4CCCC4)c3s2)c(F)c1` [Compound 92, (2-Fluoro-4-methoxyphenyl)(5-methyl-6-(2-(pyrrolidin-1-yl)ethyl)-6H-thieno[2,3-b]pyrrol-2-yl)methanone], the half-inhibitory concentration (IC50) lay in the range of 1 to 10 µM.
Take `COc1ccc(C(=O)c2cc3cc(C)n(CCN4CCCC4)c3s2)c(Cl)c1` [Compound 93, (2-Chloro-4-methoxyphenyl)(5-methyl-6-(2-(pyrrolidin-1-yl)ethyl)-6H-thieno[2,3-b]pyrrol-2-yl)methanone]: the IC50 is 0.1 to 1 µM.
For `COc1ccc(C(=O)c2cc3cc(C)n(CCCNS(C)(=O)=O)c3s2)c(C)c1` [Compound 96, N-(3-(2-(4-Methoxy-2-methylbenzoyl)-5-methyl-6H-thieno[2,3-b]pyrrol-6-yl)propyl)methanesulfonamide] the value was 1 to 10 µM; for `COc1ccc(C(=O)c2cc3cc(C)n(CCN4CCCCC4)c3s2)c(F)c1` [Compound 98, (2-Fluoro-4-methoxyphenyl)(5-methyl-6-(2-(piperidin-1-yl)ethyl)-6H-thieno[2,3-b]pyrrol-2-yl)methanone], 1 to 10 µM; for `COc1ccc(C(=O)c2cc3cc(C)n(CCN4CCCCC4)c3s2)c(O)c1` [Compound 99, (2-Hydroxy-4-methoxyphenyl)(5-methyl-6-(2-(piperidin-1-yl)ethyl)-6H-thieno[2,3-b]pyrrol-2-yl)methanone], 1 to 10 µM.
Turning to `COc1ccc(C(O)c2cc3cc(C)n(CCN4CCOCC4)c3s2)cc1` (stereo not shown) [Compound 100, (4-Methoxyphenyl)(5-methyl-6-(2-morpholinoethyl)-6H-thieno[2,3-b]pyrrol-2-yl)methanol], the IC50 is 1 to 10 µM.
Consider `COc1ccc(C(C)(O)c2cc3cc(C)n(CCN4CCOCC4)c3s2)cc1` (stereo not shown) [Compound 101, 1-(4-methoxyphenyl)-1-(5-methyl-6-(2-morpholinoethyl)-6H-thieno[2,3-b]pyrrol-2-yl)ethanol], for which the IC50 fell in the range of 1 to 10 µM.
Consider `COc1ccc(C(=O)c2cc3cc(C)n(CCCCNS(C)(=O)=O)c3s2)cc1` [Compound 102, N-(4-(2-(4-Methoxybenzoyl)-5-methyl-6H-thieno[2,3-b]pyrrol-6-yl)butyl)methanesulfonamide], for which the IC50 lay within 1 to 10 µM.
On to `COc1ccc(Cn2c(C)cc3cc(C(=O)c4ccc(OC)cc4)sc32)cc1` [Compound 103, (6-(4-Methoxybenzyl)-5-methyl-6H-thieno[2,3-b]pyrrol-2-yl)(4-methoxyphenyl)methanone], for which the 50% inhibitory concentration (IC50) lay in the range of 1 to 10 µM.
As to `COc1ccc(C(=S)c2cc3cc(C)n(CCN4CCOCC4)c3s2)cc1` [Compound 104, (4-methoxyphenyl)(5-methyl-6-(2-morpholinoethyl)-6H-thieno[2,3-b]pyrrol-2-yl)methanethione], the IC50 was 1 to 10 µM.
Take `COc1ccc(C(=O)c2cc3cc(C)n(CCCNS(N)(=O)=O)c3s2)cc1` [Compound 105]: the 50% inhibitory concentration (IC50) was more than 10 µM.
The same measure for `Cc1cc2cc(C(=O)c3ccc4c(c3)OCO4)sc2n1CCN1CCOCC1` [Compound 106, Benzo[d][1,3]dioxol-5-yl(5-methyl-6-(2-morpholinoethyl)-6H-thieno[2,3-b]pyrrol-2-yl)methanone]: 1 to 10 µM.
Consider `COc1ccc(C(=O)c2cc3cc(C)n(CCCNC(C)(C)C)c3s2)cc1` [Compound 108, (6-(3-(tert-Butylamino)propyl)-5-methyl-6H-thieno[2,3-b]pyrrol-2-yl)(4-methoxyphenyl)methanone], for which the IC50 was more than 10 µM.
As for `COc1ccc(C(=O)c2cc3cc(C)n(CCCNS(C)(=O)=O)c3s2)cn1` [Compound 109, N-(3-(2-(6-Methoxynicotinoyl)-5-methyl-6H-thieno[2,3-b]pyrrol-6-yl)propyl)methanesulfonamide], the half-maximal inhibitory concentration (IC50) is more than 10 µM.
For the compound `COc1ccc(C(=O)c2cc3cc(C)n(CCN4CCSCC4)c3s2)cc1` [Compound 110, (4-Methoxyphenyl)(5-methyl-6-(2-thiomorpholinoethyl)-6H-thieno[2,3-b]pyrrol-2-yl)methanone], the IC50 lay within 1 to 10 µM.
For the compound `Cc1cc2cc(C(=O)c3ccc(OC(C)C)cc3)sc2n1CCN1CCOCC1` [Compound 111, (4-Isopropoxyphenyl)(5-methyl-6-(2-morpholinoethyl)-6H-thieno[2,3-b]pyrrol-2-yl)methanone], the IC50 is 1 to 10 µM.
`COc1ccc(C(=O)c2cc3cc(C)n(Cc4ccncc4)c3s2)cc1` [Compound 112, (4-Methoxyphenyl)(5-methyl-6-(pyridin-4-ylmethyl)-6H-thieno[2,3-b]pyrrol-2-yl)methanone]: the concentration for half-maximal inhibition (IC50) lay in the range of 1 to 10 µM.
Turning to `COc1ccc(C(=O)c2cc3cc(C)n(S(=O)(=O)N(C)C)c3s2)cn1` [Compound 113, 2-(6-Methoxynicotinoyl)-N,N,5-trimethyl-6H-thieno[2,3-b]pyrrole-6-sulfonamide], the IC50 lay within 1 to 10 µM.
The same measure for `COc1ccc(C(=O)c2cc3cc(C)n(Cc4ccccc4)c3s2)c(Cl)c1` [Compound 114, (6-Benzyl-5-methyl-6H-thieno[2,3-b]pyrrol-2-yl)(2-chloro-4-methoxyphenyl)methanone]: 1 to 10 µM.
As for `CSc1ccc(C(=O)c2cc3cc(C)n(CCN4CCOCC4)c3s2)cc1` [Compound 115, (5-Methyl-6-(2-morpholinoethyl)-6H-thieno[2,3-b]pyrrol-2-yl)(4-(methylthio)phenyl)methanone], the half-inhibitory concentration (IC50) was 1 to 10 µM.
On to `COc1ccc(C(=O)c2cc3cc(C)n(CCN4CCOCC4)c3s2)cc1Cl` [Compound 116, (3-Chloro-4-methoxyphenyl)(5-methyl-6-(2-morpholinoethyl)-6H-thieno[2,3-b]pyrrol-2-yl)methanone], for which the concentration for half-maximal inhibition (IC50) was in the range of 1 to 10 µM.
Turning to `COc1ccc(C(=O)c2cc3cc(C)n(CCN4CCCCC4)c3s2)cn1` [Compound 117, (6-Methoxypyridin-3-yl)(5-methyl-6-(2-(piperidin-1-yl)ethyl)-6H-thieno[2,3-b]pyrrol-2-yl)methanone], the IC50 was in the range of 1 to 10 µM.
For the compound `CCc1ccc(C(=O)c2cc3cc(C)n(CCN4CCOCC4)c3s2)cc1` [Compound 122, (4-Ethylphenyl)(5-methyl-6-(2-morpholinoethyl)-6H-thieno[2,3-b]pyrrol-2-yl)methanone], the 50% inhibitory concentration (IC50) fell in the range of 1 to 10 µM.
In the case of `Cc1cc2cc(C(=O)c3cccc(Cl)n3)sc2n1CCN1CCOCC1` [Compound 123, (6-Chloropyridin-2-yl)(5-methyl-6-(2-morpholinoethyl)-6H-thieno[2,3-b]pyrrol-2-yl)methanone], the concentration for half-maximal inhibition (IC50) fell in the range of 1 to 10 µM.
As for `Cc1ccc(C(=O)c2cc3cc(C)n(CCN4CCOCC4)c3s2)cc1` [Compound 124, (5-Methyl-6-(2-morpholinoethyl)-6H-thieno[2,3-b]pyrrol-2-yl)(p-tolyl)methanone], the 50% inhibitory concentration (IC50) lay in the range of 1 to 10 µM.
For `Cc1ccc(C(O)c2cc3cc(C)n(CCN4CCOCC4)c3s2)cn1` (stereo not shown) [Compound 125, (5-Methyl-6-(2-morpholinoethyl)-6H-thieno[2,3-b]pyrrol-2-yl)(6-methylpyridin-3-yl)methanol], the concentration for half-maximal inhibition (IC50) is more than 10 µM.
For `COc1cc(F)c(C(=O)c2cc3cc(C)n(CCN4CCOCC4)c3s2)c(F)c1` [Compound 127, (2,6-difluoro-4-methoxyphenyl)(5-methyl-6-(2-morpholinoethyl)-6H-thieno[2,3-b]pyrrol-2-yl)methanone], the half-maximal inhibitory concentration (IC50) is 1 to 10 µM.
For `Cc1ccc(C(=O)c2cc3cc(C)n(CCN4CCOCC4)c3s2)cn1` [Compound 130, (5-methyl-6-(2-morpholinoethyl)-6H-thieno[2,3-b]pyrrol-2-yl)(6-methylpyridin-3-yl)methanone] the value was more than 10 µM; for `COc1ccc(C(=O)c2cc3cc(C)n(CCN4CCOCC4)c3s2)nc1` [Compound 131, (5-methoxypyridin-2-yl)(5-methyl-6-(2-morpholinoethyl)-6H-thieno[2,3-b]pyrrol-2-yl)methanone], 1 to 10 µM; for `Cc1cc2cc(C(=O)c3ccc(N(C)C(=O)OC(C)(C)C)cc3)sc2n1CCN1CCOCC1` [Compound 132, tert-butylmethyl(4-(5-methyl-6-(2-morpholinoethyl)-6H-thieno[2,3-b]pyrrole-2-carbonyl)phenyl)carbamate], 1 to 10 µM.
As to `CNc1ccc(C(=O)c2cc3cc(C)n(CCN4CCOCC4)c3s2)cc1` [Compound 134, (5-methyl-6-(2-morpholinoethyl)-6H-thieno[2,3-b]pyrrol-2-yl)(4-(methylamino)phenyl)methanone], the IC50 lay in the range of 1 to 10 µM.
`COc1ccc(C(=O)c2cc3c(Cl)c(C)n(CCN4CCOCC4)c3s2)cc1` [Compound 140, (4-chloro-5-methyl-6-(2-morpholinoethyl)-6H-thieno[2,3-b]pyrrol-2-yl)(4-methoxyphenyl)methanone]: the IC50 fell in the range of 1 to 10 µM.
With `CCN(CC)CCn1c(C)cc2cc(C(=O)c3ccc(OC)nc3)sc21` [Compound 142, (6-(2-(diethylamino)ethyl)-5-methyl-6H-thieno[2,3-b]pyrrol-2-yl)(6-methoxypyridin-3-yl)methanone], the half-inhibitory concentration (IC50) was more than 10 µM.
On to `COc1ccc(C(=O)c2cc3cc(C)n(CC4CCOCC4)c3s2)cn1` [Compound 144, (6-methoxypyridin-3-yl)(5-methyl-6-((tetrahydro-2H-pyran-4-yl)methyl)-6H-thieno[2,3-b]pyrrol-2-yl)methanone], for which the half-inhibitory concentration (IC50) was in the range of 1 to 10 µM.
